Columns and labels:
UGT2B7 = target: T1, UGT2B7 (Homo sapiens, UniProt P16662); assay: Covalent adduct formation of NSAIDs-AG with UGT2B7; assay type: binding; details: 180 μM, UGT 3.4 μM, 6 h; for covalent adduct formation with UGT2B7: 37 °C
T1 construct: purchased Corning, Inc
T1 sequence (P16662 24-529): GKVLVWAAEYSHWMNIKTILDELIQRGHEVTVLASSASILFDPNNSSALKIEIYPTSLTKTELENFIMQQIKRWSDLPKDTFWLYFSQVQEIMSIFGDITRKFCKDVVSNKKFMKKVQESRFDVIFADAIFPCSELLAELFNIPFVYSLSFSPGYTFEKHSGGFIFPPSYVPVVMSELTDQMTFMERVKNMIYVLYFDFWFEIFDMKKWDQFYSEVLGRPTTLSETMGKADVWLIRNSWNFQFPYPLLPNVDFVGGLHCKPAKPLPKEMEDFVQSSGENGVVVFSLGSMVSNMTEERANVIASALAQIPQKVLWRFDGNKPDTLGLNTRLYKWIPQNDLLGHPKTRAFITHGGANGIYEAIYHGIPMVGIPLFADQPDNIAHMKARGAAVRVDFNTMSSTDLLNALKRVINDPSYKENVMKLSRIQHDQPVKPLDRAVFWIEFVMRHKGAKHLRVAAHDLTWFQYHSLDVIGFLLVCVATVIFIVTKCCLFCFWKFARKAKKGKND
Description: (§1) The concentrations of UGT were set at 3.4 μM by the preliminary experiments on the linearity of covalent adduct formation. The covalent adduct formation of NSAIDs-AG with organelle proteins and UGT was determined according to previous reports on NSAIDs-AG with albumin with some modifications. After a deproteinization of the reaction mixture, methanol/diethyl ether (3:1) was added to the pellet. […] The concentrations of the parent NSAIDs were measured using liquid chromatography-tandem mass spectrometry (LC-MS/MS). Aliquots of 10 μL were injected into the LC-MS/MS system. The LC-MS/MS equipment consisted of an LC system (UltiMate 3000 series, Thermo Fisher Scientific, Inc.) and TSQ Endura Triple Quadrupole Mass Spectrometer with electrospray ionization (Thermo Fisher Scientific, Inc.). Finnigan Xcalibur software (Thermo Fisher Scientific, Inc.) was used for data recording and analysis. Analysis was further performed using a reversed-phase column (COSMOSIL 5C18-MSII, 2.0 mm × 150 mm, 5 μm; Nacalai Tesque, Inc.). The column temperature was set to 40 °C, and the autosampler was maintained at 10 °C. The mobile phase (A; 30% methanol in 8.5 mM ammonium formate and 0.0075% formic acid, and B; 90% methanol in 8.5 mM ammonium formate and 0.0075% formic acid) was pumped at a flow rate of 0.2 mL/min. The initial mobile phase composition was maintained at 30% mobile phase B for 1 min, changed linearly to 90% mobile phase B from 1 to 8 min, maintained for 1 min, returned to 30% mobile phase B from 9 to 10 min, and maintained for 1 min for chromatographic column equilibrium. The MS scan was operated in positive ionization mode for DIC, MEF, ZOM, KET, and NAP, or negative ionization mode, for FLU. The conditions for electrospray ionization were set at 3500 V spray voltage for positive ionization mode and 2500 V spray voltage for negative ionization mode at 400 °C capillary temperature, and 300 °C vaporizer temperature with 40 arbitrary units of nitrogen sheath gas and 10 arbitrary units of auxiliary gas. The MS scan was operated in the positive or negative ionization mode. The selected reaction monitoring (SRM) mode was used, with argon as the collision gas at 1.5 mTorr. The mass resolution was set at 0.7 full-width at half-height (unit resolution). SRM transitions (precursor and product ions) were mass to charge ratios of (m/z) 296 > 214 for DIC (positive ionization mode), 294 > 250 for DIC (negative ionization mode), 242 > 224 for MEF, 292 > 139 for ZOM, 243 > 198 for R- and S-FLU, 255 > 209 for R- and S-KET, 231 > 185 for R- and S-NAP, and 302 > 220 for DIC-d4. The collision energies were 15 V for DIC (negative ionization mode), ZOM, MEF, FLU, KET, and NAP; 35 V for DIC (positive ionization mode); and DIC-d4. The concentrations of NSAIDs were determined from a single-point calibration in every assay for NSAIDs after confirmation of linearity between area and concentrations of NSAIDs.

[1] = parameters: method as in PMID 20606003, PMID 1673415; details: phosphate buffers (pH 7.4); cited from earlier work
UGT1A1 = target: T2, UGT1A1 (Homo sapiens, UniProt P22309); assay: Covalent adduct formation of NSAIDs-AG with UGT1A1; assay type: binding; details: R vs S diastereomer; 180 μM, UGT 3.4 μM, 6 h
T2 construct: purchased Corning, Inc
T2 sequence (P22309 26-533): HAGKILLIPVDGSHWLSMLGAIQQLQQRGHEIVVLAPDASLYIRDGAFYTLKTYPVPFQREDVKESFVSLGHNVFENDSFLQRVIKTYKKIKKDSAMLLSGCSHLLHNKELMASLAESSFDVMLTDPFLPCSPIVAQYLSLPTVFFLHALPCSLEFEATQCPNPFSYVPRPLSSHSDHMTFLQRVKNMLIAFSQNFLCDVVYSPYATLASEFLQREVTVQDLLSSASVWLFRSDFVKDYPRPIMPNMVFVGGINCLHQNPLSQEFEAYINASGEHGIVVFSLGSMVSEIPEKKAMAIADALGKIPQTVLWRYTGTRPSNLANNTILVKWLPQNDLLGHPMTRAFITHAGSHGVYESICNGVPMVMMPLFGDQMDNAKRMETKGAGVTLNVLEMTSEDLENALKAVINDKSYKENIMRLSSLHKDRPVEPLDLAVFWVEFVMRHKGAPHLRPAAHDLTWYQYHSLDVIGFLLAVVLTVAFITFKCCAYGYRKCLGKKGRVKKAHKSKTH
Description: as §1, with “The conditions for electrospray ionization were set at 3500 V spray voltage for positive ionization mode and 2500 V spray voltage for negative ionization mode at 400 °C capillary temperature, and 300 °C vaporizer temperature with 40 arbitrary units of nitrogen sheath gas and 10 arbitrary units of auxiliary gas. The MS scan was operated in the positive or negative ionization mode. The selected reaction monitoring (SRM) mode was used, with argon as the collision gas at 1.5 mTorr. The mass resolution was set at 0.7 full-width at half-height (unit resolution). SRM transitions (precursor and product ions) were mass to charge ratios of (m/z) 296 > 214 for DIC (positive ionization mode), 294 > 250 for DIC (negative ionization mode), 242 > 224 for MEF, 292 > 139 for ZOM, 243 > 198 for R- and S-FLU, 255 > 209 for R- and S-KET, 231 > 185 for R- and S-NAP, and 302 > 220 for DIC-d4. The collision energies were 15 V for DIC (negative ionization mode), ZOM, MEF, FLU, KET, and NAP; 35 V for DIC (positive ionization mode); and DIC-d4.” left out

UGT1A9 = target: T3, UGT1A9 (Homo sapiens, UniProt O60656); assay: Covalent adduct formation of NSAIDs-AG with UGT1A9; assay type: binding; details: R vs S diastereomer; 180 μM, UGT 3.4 μM, 6 h
T3 construct: purchased Corning, Inc
T3 sequence (O60656 26-530): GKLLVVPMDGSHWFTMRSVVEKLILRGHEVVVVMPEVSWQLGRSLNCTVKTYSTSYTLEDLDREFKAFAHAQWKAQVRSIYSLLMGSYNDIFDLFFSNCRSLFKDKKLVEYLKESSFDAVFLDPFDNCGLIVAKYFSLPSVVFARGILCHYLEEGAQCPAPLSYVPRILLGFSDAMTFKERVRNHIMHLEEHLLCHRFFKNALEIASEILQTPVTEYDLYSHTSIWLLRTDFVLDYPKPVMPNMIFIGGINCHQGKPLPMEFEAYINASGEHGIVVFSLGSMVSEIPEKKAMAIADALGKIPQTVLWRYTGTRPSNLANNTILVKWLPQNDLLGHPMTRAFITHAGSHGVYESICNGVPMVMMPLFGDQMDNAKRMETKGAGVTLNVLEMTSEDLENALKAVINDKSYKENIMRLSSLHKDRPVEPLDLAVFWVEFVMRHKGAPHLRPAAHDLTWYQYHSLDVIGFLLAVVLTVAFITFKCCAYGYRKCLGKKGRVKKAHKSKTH
Description: as §1, with “The conditions for electrospray ionization were set at 3500 V spray voltage for positive ionization mode and 2500 V spray voltage for negative ionization mode at 400 °C capillary temperature, and 300 °C vaporizer temperature with 40 arbitrary units of nitrogen sheath gas and 10 arbitrary units of auxiliary gas. The MS scan was operated in the positive or negative ionization mode. The selected reaction monitoring (SRM) mode was used, with argon as the collision gas at 1.5 mTorr. The mass resolution was set at 0.7 full-width at half-height (unit resolution). SRM transitions (precursor and product ions) were mass to charge ratios of (m/z) 296 > 214 for DIC (positive ionization mode), 294 > 250 for DIC (negative ionization mode), 242 > 224 for MEF, 292 > 139 for ZOM, 243 > 198 for R- and S-FLU, 255 > 209 for R- and S-KET, 231 > 185 for R- and S-NAP, and 302 > 220 for DIC-d4. The collision energies were 15 V for DIC (negative ionization mode), ZOM, MEF, FLU, KET, and NAP; 35 V for DIC (positive ionization mode); and DIC-d4.” left out

covalent adduct formation with UGT2B7 (UGT2B7)	Compound	half-lives in buffers [1]	amounts of covalent adducts with UGT2B7 compared with UGT1A9 (UGT2B7)	covalent adduct formation with UGT1A1 compared with the other diastereomer (UGT1A1)	covalent adduct formation with UGT1A9 compared with the other diastereomer (UGT1A9)	covalent adduct formation with UGT2B7 compared with the other diastereomer (UGT2B7; R vs S diastereomer)
higher amounts of covalent adducts	COc1ccc2cc(C(C)C(=O)O[C@@H]3O[C@H](C(=O)O)[C@@H](O)[C@H](O)[C@H]3O)ccc2c1 (some centres unmarked) [NAP-AG]	relatively short half-lives				
higher amounts of covalent adducts	Cc1cc(CC(=O)O[C@@H]2O[C@H](C(=O)O)[C@@H](O)[C@H](O)[C@H]2O)n(C)c1C(=O)c1ccc(Cl)cc1 [ZOM-AG]	relatively short half-lives	significantly higher amounts of covalent adducts			
	CC(C(=O)OC1OC(C(=O)O)C(O)C(O)C1O)c1ccc(-c2ccccc2)c(F)c1 (centres unmarked) [S-FLU-AG]			significantly higher	significantly higher	significantly higher
